This note sets out measurements from US7589096B2, “Azole derivatives” (Banyu Pharmaceutical Co., Ltd., priority 2002, dated 2009).

Where a name gives a salt, the structure may show the parent alone. Read-outs that look alike come from different tables or passages of the source.

The target of one data set is T1, human NPY Y5 receptor (Homo sapiens, UniProt Q15761).
T1 construct: expressed in transfected cells; host or cells: COS-7, CHO and LM(tk-)
T1 sequence (Q15761 1-445): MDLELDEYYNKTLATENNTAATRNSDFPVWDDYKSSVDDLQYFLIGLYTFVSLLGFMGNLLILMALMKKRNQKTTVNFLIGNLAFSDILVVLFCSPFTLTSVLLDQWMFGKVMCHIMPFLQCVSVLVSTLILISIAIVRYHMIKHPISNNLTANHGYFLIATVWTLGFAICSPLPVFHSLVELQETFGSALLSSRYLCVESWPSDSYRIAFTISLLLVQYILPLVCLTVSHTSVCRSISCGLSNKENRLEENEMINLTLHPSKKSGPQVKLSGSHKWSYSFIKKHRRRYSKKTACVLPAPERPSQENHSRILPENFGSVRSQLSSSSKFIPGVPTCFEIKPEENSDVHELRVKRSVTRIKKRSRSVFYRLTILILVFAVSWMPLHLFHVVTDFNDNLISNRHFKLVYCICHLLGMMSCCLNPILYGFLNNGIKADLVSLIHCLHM
Put plainly: NPY binding inhibition test ([125I]peptide YY binding to membranes of NPY Y5 receptor expression cells). The note with it: [125I]peptideYY, membrane sample, 25° C., 2 hours; read-out: IC50 against specific peptide YY binding. The text has this: cDNA sequence encoding human NPY Y5 receptor (cf. International patent publication number WO96/16542) was cloned into expression vectors pcDNA3, pRc/RSV (made by invitrogen Inc.) and pCI-neo (made by Promega Inc.). The expression vectors thus obtained were transfected to host cells COS-7, CHO and LM(tk-) (American Type Culture Collection) by cationic lipid method (Proceedings of the National Academy of Sciences of the United States of America, 84: 7413 (1987)) to give NPY Y5 receptor expression cells.
A membrane sample prepared from the cells which expressed NPY Y5 receptor was incubated together with a test compound and [^125I]peptideYY (made by NEN) (20,000 cpm) in man assay buffer (25 mM Tris buffer, pH 7.4, containing 10 mM magnesium chloride, 1 mM phenylmethylsulfonyl fluoride, 0.1% bacitracin and 0.5% bovine serum albumin) at 25° C. for 2 hours, then filtered through a glass filter GF/C and washed with 5 mM Tris buffer (pH7.4) containing 0.3% BSA. The radioactivity of the cake on the glass filter was measured. Non-specific binding was measured in the presence of 1 μM peptide YY, and a 50% Inhibitory Concentration (IC50) of the test compound against specific peptide YY binding was determined (Endocrinology; 131: 2090 (1992)).

The nature of data set [1]: Brain/cerebrospinal fluid transport test. Type of data set: in vivo. The note with it: male SD rats, 2 hours after oral administration (10 mg/kg); for concentration at 2 h: rat. How it is done: A test compound was orally or intravenously administered to male SD rats (7-10 weeks old, 200-400 g), and whole blood was collected from the abdominal aorta of said rats anesthetized with ether at predetermined time, using a heparin-treated syringe. Then, the head skin was cut open, and a dental 30 G needle was inserted between the cervical vertebrae, and it was further inserted into the cavum subarachnoideale. After 50 to 100 μL cerebrospinal fluid had been collected by a 1 ml-syringe through a tube connected to said dental 30 G needle, the brain was extracted. The blood sample was centrifuged (4° C., 6,000 r.p.m., 10 minutes) to collect the plasma, to which was added 3-fold amount of ethanol containing an internal standard, and the mixture was stirred. The brain sample was homogenized after addition of 2 ml water, an aliquot of the homogenate was taken and 3-fold amount of ethanol containing an internal standard was added thereto and stirred. The cerebrospinal fluid was stirred after adding 3-fold amount of ethanol containing an internal standard. The samples thus obtained were allowed to stand at −20° C. for 20 minutes, and then centrifuged (4° C., 12,000 g, 10 minutes). The supernatant was analyzed by LC/MS/MS, and the concentration of the test compound in the plasma, brain, and cerebrospinal fluid were measured by the method using a relative calibration curve.

Turning to `O=C1OC2(CCN(c3cc(-c4ccnc(-c5ccccc5F)n4)[nH]n3)CC2)c2cnccc21` [Example 46, 3-[3-oxospiro[6-azaisobenzofuran-1(3H),4′-piperidin]-1′-yl]-5-[2-(2-fluorophenyl)pyrimidin-4-yl]-1H-pyrazole], the IC50 (commonly the concentration at which inhibition is half-maximal) on human NPY Y5 receptor was 1.5 nM.
Still for that read-out and setting: the figure for `O=C1OC2(CCC(c3cc(-c4ccnc(-c5ccccc5)n4)[nH]n3)CC2)c2ccccc21` (stereo not drawn) [Example 23, trans-3-[3′-oxospiro[cyclohexane-1,1′(3′H)-isobenzofuran]-4-yl]-5-(2-phenylpyrimidin-4-yl)-1H-pyrazole] is 2.7 nM.
The same measure, in the same setting: the figure for `O=C1OC2(CCC(c3nn4nc(-c5ccccc5)cc4[nH]3)CC2)c2ccccc21` (stereo not drawn) [Example 36, trans-2-[3′-oxospiro[cyclohexane-1,1′(3′H)-isobenzofuran]-4-yl]-6-phenyl-1H-pyrazolo[2,3-b][1,2,4]triazole] is 1.8 nM.
On to `O=C1OC2(CCC(c3cc(-c4ccnc(-c5ccccc5)n4)[nH]n3)CC2)c2cnccc21` (stereo not drawn) [Example 29, trans-3-[3-oxospiro[6-azaisobenzofuran-1(3H),1′-cyclohexan]-4′-yl]-5-(2-phenylpyrimidin-4-yl)-1H-pyrazole], for which the IC50 at human NPY Y5 receptor came to 3.9 nM. The “concentration in the brain” value in data set [1] came out at 3.01 nmol/g. The concentration at 2 h in data set [1] (cerebrospinal fluid, read-out: concentration in the cerebrospinal fluid) worked out at 15 nM; in data set [1] (plasma, read-out: concentration in the plasma), 1160 nM.
Turning to `O=C1OC2(CCC(c3cc(-c4cncc(-c5ccccc5)n4)[nH]n3)CC2)c2ccccc21` (stereo not drawn) [Example 24, trans-3-[3′-oxospiro[cyclohexane-1,1′(3′H)-isobenzofuran]-4-yl]-5-(6-phenylpyrazin-2-yl)-1H-pyrazole], the IC50 on human NPY Y5 receptor worked out at 3.9 nM.
Still for that read-out and setting: the same measure for `O=C1OC2(CCN(c3nc(-c4ccc5ccccc5c4)c[nH]3)CC2)c2ccccc21` [Example 1, 4-(2-naphthyl)-2-[3-oxospiro[isobenzofuran-1(3H),4′-piperidin]-1′-yl]-1H-imidazole hydrochloride]: 1.7 nM; for `O=C1OC2(CCC(c3nn4nc(-c5ccccc5F)cc4[nH]3)CC2)c2cnccc21` (stereo not drawn) [Example 34, trans-6-(2-fluorophenyl)-2-[3-oxospiro[6-azaisobenzofuran-1(3H),1′-cyclohexan]-4′-yl]-1H-pyrazolo[2,3-b][1,2,4]-triazole]: 3.5 nM.
Same read-out and setting: the figure for `O=C1OC2(CCN(c3cc(-c4ccnc(-c5ccccc5)c4)[nH]n3)CC2)c2ccccc21` [Example 14, 3-[3-oxospiro[isobenzofuran-1(3H),4′-piperidin]-1′-yl]-5-(2-phenylpyridin-4-yl)-1H-pyrazole] is 1.7 nM; for `O=C1OC2(CCC(c3nn4nc(-c5ccccc5)cc4[nH]3)CC2)c2cnccc21` (stereo not drawn) [Example 35, trans-2-[3-oxospiro[6-azaisobenzofuran-1(3H),1′-cyclohexan]-4′-yl]-6-phenyl-1H-pyrazolo[2,3-b][1,2,4]triazole] it is 3.3 nM.
As to `O=C1OC2(CCN(c3cc(-c4ccnc(-c5ccc(F)cc5)n4)[nH]n3)CC2)c2cnccc21` [Example 47, 3-[3-oxospiro[6-azaisobenzofuran-1(3H),4′-piperidin]-1′-yl]-5-[2-(4-fluorophenyl)pyrimidin-4-yl]-1H-pyrazole], the IC50 at human NPY Y5 receptor came out at 2.2 nM.
In the case of `O=C1OC2(CCN(c3cc(-c4ccnc(-c5ccccc5)n4)[nH]n3)CC2)c2cnccc21` [Example 45, 3-[3-oxospiro[6-azaisobenzofuran-1(3H),4′-piperidin]-1′-yl]-5-(2-phenylpyrimidin-4-yl)-1H-pyrazole], the IC50 on human NPY Y5 receptor is 1.5 nM.
As for `O=C1OC2(CCN(c3cc(-c4ccnc(-c5ccccc5)n4)[nH]n3)CC2)c2ccccc21` [Example 19, 3-[3-oxospiro[isobenzofuran-1(3H),4′-piperidin]-1′-yl]-5-(2-phenylpyrimidin-4-yl)-1H-pyrazole], the IC50 on human NPY Y5 receptor was found to be 1.6 nM.
Same read-out and setting: the figure for `O=C1OC2(CCN(c3nc(-c4ccc5ccccc5c4)n[nH]3)CC2)c2ccccc21` [Example 30, 3-(2-naphthyl)-5-[3-oxospiro[isobenzofuran-1-(3H),4′-piperidin]-1′-yl]-1H-1,2,4-triazole] is 4.2 nM.
